Experiments:
bedstraw = test: Test B pre/postemergence bedstraw; assay type: in vivo, Galium aparine
Summary of the method: (§1)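 Response is a visual 0-to-10 score relative to untreated plants, where 0 means no effect and 10 means complete control, taken twelve to sixteen days after application. Treatments went onto soil at planting and onto foliage of 1- to 4-leaf plants, using a surfactant-containing non-phytotoxic solvent.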

blackgrass = test: Test B pre/postemergence blackgrass; assay type: in vivo, Alopecurus myosuroides
Summary of the method: as §1

surinam grass = test: Test B pre/postemergence surinam grass; assay type: in vivo, Brachiaria decumbens
Summary of the method: as §1

corn = test: Test B pre/postemergence corn; assay type: in vivo, Zea mays
Summary of the method: as §1

giant foxtail = test: Test B pre/postemergence giant foxtail; assay type: in vivo, Setaria faberii
Summary of the method: as §1

morningglory = test: Test B pre/postemergence morningglory; assay type: in vivo, Ipomoea hederacea
Summary of the method: as §1

pigweed = test: Test B pre/postemergence pigweed; assay type: in vivo, Amaranthus retroflexus
Summary of the method: as §1

rape = test: Test B pre/postemergence rape; assay type: in vivo, Brassica napus
Summary of the method: as §1

soybean = test: Test B pre/postemergence soybean; assay type: in vivo, Glycine max
Summary of the method: as §1

sugar beet = test: Test B pre/postemergence sugar beet; assay type: in vivo, Beta vulgaris
Summary of the method: as §1

velvetleaf = test: Test B pre/postemergence velvetleaf; assay type: in vivo, Abutilon theophrasti
Summary of the method: as §1

purple nutsedge = test: Test B pre/postemergence purple nutsedge; assay type: in vivo, Cyperus rotundus
Summary of the method: as §1

rice = test: Test B flood test rice; assay type: in vivo, Oryza sativa
Summary of the method: (§2)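 Flood test on plants grown to the 2-leaf stage; treated plants kept in greenhouse twelve to sixteen days, then visually rated against controls on a 0 (no effect) to 10 (complete control) scale.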

smallflower flatsedge = test: Test B flood test smallflower flatsedge; assay type: in vivo, Cyperus difformis
Summary of the method: as §2

duck salad = test: Test B flood test duck salad; assay type: in vivo, Heteranthera limosa
Summary of the method: as §2

bamyardgrass = test: Test B flood test barnyardgrass; assay type: in vivo, Echinochloa crus-galli
Summary of the method: as §2

[1] = Postemergence, Rate 62 g/ha, scale 0 to 10, 0 is no effect, 10 is complete control
[2] = Postemergence, Rate 250 g/ha, scale 0 to 10, 0 no effect, 10 complete control
[3] = Preemergence, Rate 62 g/ha, scale 0 to 10 (0 no effect, 10 complete control)
[4] = Preemergence, Rate 125 g/ha, scale 0 to 10 (0 no effect, 10 complete control)
[5] = Preemergence, Rate 250 g/ha, scale of 0 to 10 where 0 is no effect and 10 is complete control
[6] = Preemergence, Rate 500 g/ha, scale 0 (no effect) to 10 (complete control)
[7] = Rate 125 g/ha, Postemergence, scale 0 to 10, 0 no effect, 10 complete control
[8] = Rate 500 g/ha, Postemergence, scale 0 to 10, 0 no effect, 10 complete control
[9] = Rate 125 g/ha, Postemergence section (flood test species), scale 0 to 10, 0 no effect, 10 complete control
[10] = Rate 500 g/ha, listed under Postemergence (flood test species), scale 0 to 10, 0 no effect, 10 complete control
[11] = flood test, listed under Postemergence, Rate 250 g/ha, scale 0 to 10, 0 no effect, 10 complete control

CC(C)N(C(=O)n1oc(=O)n(Cc2cccs2)c1=O)c1ccc(F)cc1 [Compound 80]
Bedstraw plant response rating (bedstraw; [1]): 0 | Bedstraw plant response rating (bedstraw; [2]): 0 | Bedstraw plant response rating (bedstraw; [3]): 0 | Plant response rating, Bedstraw (bedstraw; [4]): 0 | Plant response rating, Bedstraw (bedstraw; [5]): 0 | Bedstraw plant response rating (bedstraw; [6]): 0 | Bedstraw plant response rating (bedstraw; [7]): 0 | Bedstraw plant response rating (bedstraw; [8]): 6 | Blackgrass plant response rating (blackgrass; [1]): 2 | Blackgrass plant response rating (blackgrass; [2]): 3 | Blackgrass plant response rating (blackgrass; [3]): 0 | Plant response rating, Blackgrass (blackgrass; [4]): 2 | Plant response rating, Blackgrass (blackgrass; [5]): 4 | Blackgrass plant response rating (blackgrass; [6]): 6 | Blackgrass plant response rating (blackgrass; [7]): 2 | Blackgrass plant response rating (blackgrass; [8]): 5 | B. signalgrass plant response rating (surinam grass; [1]): 0 | B. signalgrass plant response rating (surinam grass; [2]): 0 | B. signalgrass plant response rating (surinam grass; [3]): 0 | Plant response rating, B. signalgrass (surinam grass; [4]): 0 | Plant response rating, B. signalgrass (surinam grass; [5]): 0 | B. signalgrass plant response rating (surinam grass; [6]): 4 | B. signalgrass plant response rating (surinam grass; [7]): 0 | B. signalgrass plant response rating (surinam grass; Rate 500 g/ha, Postemergence, scale of 0 to 10 where 0 is no effect and 10 is complete control): 0 | Corn plant response rating (corn; [1]): 0 | Corn plant response rating (corn; [2]): 0 | Corn plant response rating (corn; [3]): 0 | Plant response rating, Corn (corn; [4]): 0 | Plant response rating, Corn (corn; [5]): 0 | Corn plant response rating (corn; [6]): 0 | Corn plant response rating (corn; [7]): 0 | Corn plant response rating (corn; [8]): 0 | Giant foxtail plant response rating (giant foxtail; [1]): 0 | Giant foxtail plant response rating (giant foxtail; [2]): 3 | Giant foxtail plant response rating (giant foxtail; [3]): 6 | Plant response rating, Giant foxtail (giant foxtail; [4]): 8 | Plant response rating, Giant foxtail (giant foxtail; [5]): 8 | Giant foxtail plant response rating (giant foxtail; [6]): 9 | Giant foxtail plant response rating (giant foxtail; [7]): 2 | Giant foxtail plant response rating (giant foxtail; [8]): 7 | Morningglory plant response rating (morningglory; [1]): 7 | Morningglory plant response rating (morningglory; [2]): 10 | Morningglory plant response rating (morningglory; [3]): 0 | Plant response rating, Morningglory (morningglory; [4]): 0 | Plant response rating, Morningglory (morningglory; [5]): 0 | Morningglory plant response rating (morningglory; [6]): 0 | Morningglory plant response rating (morningglory; [7]): 8 | Morningglory plant response rating (morningglory; [8]): 10 | Redroot pigweed plant response rating (pigweed; [1]): 2 | Redroot pigweed plant response rating (pigweed; [2]): 4 | Plant response rating, Redroot pigweed (pigweed; [4]): 7 | Plant response rating, Redroot pigweed (pigweed; [5]): 7 | Redroot pigweed plant response rating (pigweed; [6]): 7 | Redroot pigweed plant response rating (pigweed; [7]): 3 | Redroot pigweed plant response rating (pigweed; [8]): 4 | Rape plant response rating (rape; [1]): 2 | Rape plant response rating (rape; [2]): 3 | Rape plant response rating (rape; [3]): 0 | Plant response rating, Rape (rape; [4]): 3 | Plant response rating, Rape (rape; [5]): 4 | Rape plant response rating (rape; [6]): 5 | Rape plant response rating (rape; [7]): 2 | Rape plant response rating (rape; [8]): 3 | Soybean plant response rating (soybean; [1]): 0 | Soybean plant response rating (soybean; [2]): 1 | Soybean plant response rating (soybean; [3]): 0 | Plant response rating, Soybean (soybean; [4]): 0 | Plant response rating, Soybean (soybean; [5]): 0 | Soybean plant response rating (soybean; [6]): 0 | Soybean plant response rating (soybean; [7]): 1 | Soybean plant response rating (soybean; [8]): 2 | Sugarbeets plant response rating (sugar beet; [2]): 4 | Sugarbeets plant response rating (sugar beet; [3]): 0 | Plant response rating, Sugarbeets (sugar beet; [4]): 3 | Plant response rating, Sugarbeets (sugar beet; [5]): 4 | Sugarbeets plant response rating (sugar beet; [6]): 5 | Sugarbeets plant response rating (sugar beet; [7]): 3 | Sugarbeets plant response rating (sugar beet; [8]): 7 | Velvetleaf plant response rating (velvetleaf; [1]): 0 | Velvetleaf plant response rating (velvetleaf; [2]): 0 | Velvetleaf plant response rating (velvetleaf; [3]): 0 | Plant response rating, Velvetleaf (velvetleaf; [4]): 0 | Plant response rating, Velvetleaf (velvetleaf; [5]): 2 | Velvetleaf plant response rating (velvetleaf; [6]): 3 | Velvetleaf plant response rating (velvetleaf; [7]): 0 | Velvetleaf plant response rating (velvetleaf; [8]): 0 | Nutsedge plant response rating (purple nutsedge; [1]): 0 | Nutsedge plant response rating (purple nutsedge; [2]): 0 | Nutsedge plant response rating (purple nutsedge; [3]): 0 | Plant response rating, Nutsedge (purple nutsedge; [4]): 0 | Plant response rating, Nutsedge (purple nutsedge; [5]): 0 | Nutsedge plant response rating (purple nutsedge; [6]): 0 | Nutsedge plant response rating (purple nutsedge; [7]): 0 | Nutsedge plant response rating (purple nutsedge; [8]): 0 | Rice plant response rating (rice; [1]): 0 | Rice plant response rating (rice; [9]): 0 | Rice plant response rating (rice; [10]): 2 | Rice plant response rating (rice; [11]): 0 | S. Flatsedge plant response rating (smallflower flatsedge; [1]): 0 | S. Flatsedge plant response rating (smallflower flatsedge; [9]): 0 | S. Flatsedge plant response rating (smallflower flatsedge; [10]): 3 | S. Flatsedge plant response rating (smallflower flatsedge; [11]): 3 | Ducksalad plant response rating (duck salad; [1]): 0 | Ducksalad plant response rating (duck salad; [9]): 0 | Ducksalad plant response rating (duck salad; [10]): 2 | Ducksalad plant response rating (duck salad; [11]): 0 | Barnyardgrass plant response rating (bamyardgrass; [1]): 0 | Barnyardgrass plant response rating (bamyardgrass; [9]): 3 | Barnyardgrass plant response rating (bamyardgrass; [10]): 9 | Barnyardgrass plant response rating (bamyardgrass; [11]): 8

— patent publication US6737383B1, “Herbicidal oxadiazolidines” (priority 1999, dated 2004)
